Results on 1 molecule are retold here after patent publication US20240228543A1, “CYCLIC PEPTIDE INHIBITORS OF USP22” (THE JOHNS HOPKINS UNIVERSITY, priority 2021, published 2024).

The target in assay [1] is USP22/ATXN7L3/ENY2/ATXN7 (hDUBm) (Homo sapiens, UniProt Q9UPT9). The experiment in a line: biochemical. As to the method: Cleavage rates of 5 μM Ub-AMC were assayed for 75 nM USP22/ATXN7L3/ENY2/ATXN7 (hDUBm), 100 nM USP27x/ATXN7L3/ENY2, or 1000 nM USP51/ATXN7L3/ENY2. Rates were normalized to the uninhibited reaction in each case to determine the fraction of apparent activity.
Sequence of USP22/ATXN7L3/ENY2/ATXN7 (hDUBm) (Q9UPT9 whole entry): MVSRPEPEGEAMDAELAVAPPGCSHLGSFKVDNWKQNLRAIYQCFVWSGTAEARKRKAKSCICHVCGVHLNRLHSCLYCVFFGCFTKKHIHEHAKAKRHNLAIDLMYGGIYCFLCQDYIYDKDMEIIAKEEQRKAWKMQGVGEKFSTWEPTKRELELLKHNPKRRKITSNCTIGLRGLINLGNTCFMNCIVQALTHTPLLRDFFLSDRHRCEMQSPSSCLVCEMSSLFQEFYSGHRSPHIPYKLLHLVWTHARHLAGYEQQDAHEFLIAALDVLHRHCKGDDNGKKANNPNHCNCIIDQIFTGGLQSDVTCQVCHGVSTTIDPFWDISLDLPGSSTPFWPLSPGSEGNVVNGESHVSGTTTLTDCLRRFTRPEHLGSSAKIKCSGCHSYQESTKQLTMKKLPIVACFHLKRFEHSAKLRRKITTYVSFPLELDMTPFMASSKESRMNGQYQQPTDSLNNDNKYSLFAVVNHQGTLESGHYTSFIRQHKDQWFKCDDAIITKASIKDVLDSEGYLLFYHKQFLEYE
Sequence of USP22/ATXN7L3/ENY2/ATXN7 (hDUBm) (O15265 3-151 partner limits assumed): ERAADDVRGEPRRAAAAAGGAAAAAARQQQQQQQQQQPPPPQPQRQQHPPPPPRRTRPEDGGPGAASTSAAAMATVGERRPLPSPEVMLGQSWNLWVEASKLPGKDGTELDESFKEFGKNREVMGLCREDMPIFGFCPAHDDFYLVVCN
Sequence of USP22/ATXN7L3/ENY2/ATXN7 (hDUBm) (Q14CW9 whole entry partner): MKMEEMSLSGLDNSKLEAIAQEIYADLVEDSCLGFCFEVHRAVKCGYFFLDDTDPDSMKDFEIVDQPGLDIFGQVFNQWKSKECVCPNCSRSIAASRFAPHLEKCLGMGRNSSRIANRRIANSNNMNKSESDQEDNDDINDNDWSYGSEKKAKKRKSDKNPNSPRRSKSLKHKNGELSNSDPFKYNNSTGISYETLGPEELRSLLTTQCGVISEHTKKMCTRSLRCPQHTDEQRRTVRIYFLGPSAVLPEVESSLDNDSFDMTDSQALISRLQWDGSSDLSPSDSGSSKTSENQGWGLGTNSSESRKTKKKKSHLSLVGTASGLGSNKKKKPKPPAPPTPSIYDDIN
Sequence of USP22/ATXN7L3/ENY2/ATXN7 (hDUBm) (Q9NPA8 whole entry partner): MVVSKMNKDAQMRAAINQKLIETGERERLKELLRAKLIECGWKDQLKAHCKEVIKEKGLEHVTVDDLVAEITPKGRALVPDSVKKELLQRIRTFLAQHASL
DUB specificity assays Ubiquitin-rhodamine(110)-glycine cleavage rates were measured for all DUBs available in the DUBprofiler™ panel with two independent replicates (44 in total; Ubiquigent). […] USP22 was not included in the panel, and is not represented in FIG. 12A. […] Initial cleavage rates of each complex were measured on a fixed concentration of 5 μM Ub-AMC.
Heterotrimeric complexes containing USP27x and USP51 were purified, respectively, in complex with ENY2 and ATXN7L3. The activity of these complexes on Ub-AMC was compared to that of the human DUBm, which contains USP22, ENY2, ATXN7L3, and a fourth subunit, ATXN7, that anchors the DUBm to the rest of the SAGA complex.

In assay [2] the target is T1, human DUB module (hDUBm; USP22, ATXN7, ATXN7L3, ENY2) (Homo sapiens, UniProt Q9UPT9).
T1 construct: 6xHis (TEV-cleavable) (N, cleaved yes); made in house; host or cells: High Five insect cells (baculovirus, Bac2Bac; virus amplified in Sf9)
T1 sequence (Q9UPT9 whole entry): as the sequence (Q9UPT9 whole entry) above
T1 sequence (O15265 3-151 partner limits assumed): as the sequence (O15265 3-151 partner limits assumed) above
T1 sequence (Q14CW9 whole entry partner): as the sequence (Q14CW9 whole entry partner) above
T1 sequence (Q9NPA8 whole entry partner): as the sequence (Q9NPA8 whole entry partner) above
The experiment in a line: Ub-AMC deubiquitination assay, human DUB module. It is filed as biochemical. The following applies: Ki (apparent, Morrison approximation), Ub-AMC cleavage, 200 nM DUB, 1 μM Ub-AMC. On the procedure:
FIG. 2A is a graph of initial rates of Ub-AMC cleavage by hDUB module as a function of substrate concentration. […] FIGS. 2B-2G are graphs of each cyclic peptide, as indicated, tested for its ability to inhibit Ub-AMC cleavage in the presence of increasing amounts of the peptide into a reaction with a fixed amount of DUB (200 nM) and Ub-AMC (1 μM). Ki values were determined for each curve using the Morrison Ki approximation.
Ub-AMC deubiquitination assay A working stock mixture of either yDUBm or hDUBm was prepared in the presence of either DMSO (mock) or a dilution series of the cyclic peptide. […] Each enzyme:peptide mixture was incubated for 30 min at 30° C. in the case of yDUBm, and 37° C. in the case of hDUBm, with each enzyme complex at 1.033× the desired concentration (207 nM). The enzyme:peptide mixture ([…]) was added to 1 μL of 30 μM U b-AMC (7-amino-4-methylcoumarin) (Boston Biochem), for a final concentration of 200 nM DUBm, the indicated cyclic peptide concentration, and 1 μM Ub-AMC. DUB activity was measured by observing the increase in AMC fluorescence in a plate reader, and the initial rate of fluorescence increase was calculated and plotted as a function of inhibitor concentration (FIGS. 2B-2I). The Ki values were determined using the Morrison approximation of enzyme inhibition equilibria within Prism (Graphpad).
The cyclic peptides that constituted potential inhibitors were chemically synthesized by solid phase peptide synthesis and tested for their effectiveness and specificity as inhibitors in vitro. Since the enzyme kinetics of the human DUB module had not previously been characterized, hDUBm activity was assayed using the fluorogenic substrate, ubiquitin-amino methyl coumarin (Ub-AMC) (FIG. 2A).

Where “and” joins values, the source holds several entries; their conditions need not be identical. Identical values can stand only once. Positions of bridges follow the written chain, without caps; N, C: chain ends. Non-standard residues stand in square brackets, D forms with d. Residues, ends and D or L forms follow the SMILES beside them.

Consider `CC[C@H](C)[C@@H]1NC(=O)[C@H](C)NC(=O)[C@@H](Cc2ccc(O)cc2)NC(=O)CSC[C@@H](C(N)=O)NC(=O)[C@H](CC(C)C)NC(=O)[C@H](CC(C)C)NC(=O)[C@H]([C@@H](C)O)NC(=O)[C@H]([C@@H](C)O)NC(=O)[C@H](CCCCN)NC(=O)CNC(=O)[C@H](CCCNC(=N)N)NC(=O)[C@H](Cc2ccc(O)cc2)NC(=O)[C@H](CO)NC1=O` [hD1] ({CH2CO}-[dY]AISYRGKTTLLC-NH2; thioether N-13), for which the IC50 (commonly the concentration that inhibits the measured activity by half) in assay [1] was 0.1 µM. Further, in assay [2], the Ki is < 0.1 µM and 0.0206 µM.
